Test results reported in patent publication US20200316051A1, “TLR7/8 ANTAGONISTS AND USES THEREOF” (Merck Patent GmbH, priority 2017, published 2020).

Legend:
[1] = test system: TLR7/8; assay: Activation of human PBMCs by LL37 alone or in complex with GU trimer or let-7c miRNA, with or without TLR7/8 inhibitor; assay type: cell-based
Protocol: Binding of LL37 to miRNA enables delivery of miRNA to human PBMCs and stimulate TLR7/8-mediated production of cytokines. Human recombinant LL37 protein was used alone, or in a complex with GU trimer or let-7c miRNA to activate human PBMCs in the presence or absence of TLR7/8 inhibitor (Compound 467 in Table 1 above). Levels of IL-6 (FIG. 5) and IFNα (FIG. 6) were measured following overnight incubation.

[2] = test system: TLR7/8; assay: Cytokine production in human PBMCs stimulated with TLR7 agonist, let7c miRNA or let7/DOTAP in the presence of TLR7/8 antagonist; assay type: cell-based
Protocol: Human PBMCs were treated with TLR7 agonist (TLR7), let7c miRNA or transfected with let7c miRNA (let7/DOTAP) in the presence of TLR7/8 antagonist (Compound 467 in Table 1 above). Levels of IL-6 (FIG. 3) and IFNα (FIG. 4) were measured following overnight incubation.

For `C[C@@H]1CN(c2ccc(C#N)c3nccnc23)C[C@H](CN2CCC(N3CCOCC3)CC2)O1` [Compound 467], the “TLR7/8 activation by LL37-RNA complexes, levels of IL-6” value ([1]; overnight incubation (FIG. 5)) was “the activation is suppressed”, the “TLR7/8 activation by LL37-RNA complexes, levels of IFNα” value ([1]; overnight incubation (FIG. 6)) was “the activation is suppressed” and the “levels of IL-6 induced by let-7 miRNA” value ([2]; overnight incubation (FIG. 3)) was “blocks production of cytokines”. The “levels of IFNα induced by let-7 miRNA” value ([2]; overnight incubation (FIG. 4)) was “blocks production of cytokines”.
